The data set in a line: gradient 5% acetonitrile 3 min, to 50% in 2 min, to 85% in 15 min, held 3 min, 100 µL/min. To be noted: column: Zorbax Extend-C18 2.1 x 50 mm; eluents: water / acetonitrile, 0.1% formic acid. In outline: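 Pure standards were analyzed in mixtures of ~100 molecules using HPLC coupled to a quadrupole time-of-flight mass spectrometer, in both positive and negative ionization mode. Separation used a Zorbax Extend-C18 column (2.1 × 50 mm, 1.8 μm) at 100 μL/min, with water and acetonitrile each containing 0.1% formic acid. Dead and dwell volumes were 40 μL and 900 μL, and data were collected over 3 months. Retention time was read from computationally picked adduct peaks, each inspected manually.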
In the case of `COCCN1C(=O)[C@H]2CN(Cc3ccc(OC)c(OC)c3Cl)C[C@H]2C1=O`, the RP-LC retention time was 620 s. Then `COc1ccc(-c2cn3c(CC(=O)Nc4ccc(F)cc4Cl)csc3n2)cc1`, with 795 s; and `c1ccc(-c2ccc(CNCCc3c[nH]c4ccccc34)o2)cc1`, with 735 s. On to `Cc1ccc(N2C(=O)CC(N3CCC(C(N)=O)CC3)C2=O)c(Cl)c1` (centres undefined), for which the RP-LC retention time was determined as 614 s. As to `CCN1C(=O)COc2ccc(-c3noc(-c4ccccc4F)n3)cc21`, the RP-LC retention time was determined as 1070 s. Regarding `O=S(=O)(c1cc(-c2nnc(-c3ccc(F)cc3)o2)ccc1Cl)N1CCCC1`, the RP-LC retention time came to 1070 s. As for `CC(=O)N1CCc2cc(-c3ccc(C(=O)N4CCN(Cc5ccc6c(c5)OCO6)CC4)cc3)ccc21`, the RP-LC retention time came out at 647 s. `Cc1ccc(C)c(S(=O)(=O)N2CCCN(C)c3ccccc32)c1` showed an RP-LC retention time of 1100 s. On to `CCN1C(=O)c2cc(C(=O)Nc3ccc(C)c(C)c3)nn2CC1(C)C(=O)NC1CCCC1` (centres undefined), for which the RP-LC retention time was determined as 884 s. In turn, `CN1CCN(C(=O)c2nn(-c3ccc(Cl)cc3)c3c(=O)n(C)cnc23)CC1` came in with an RP-LC retention time of 611 s. Take `COCCN1C(=O)c2ccccc2C(C(=O)NCc2ccc(F)cc2)C12CCCC2` (centres undefined): the RP-LC retention time was 879 s. Then `COc1ccc(-c2nc3cnccn3c2Nc2ccc(C(=O)O)cc2)cc1`, with 662 s.

`Cc1ccn2cc(C(=O)N3CCN(c4ccc(F)cc4)CC3)nc2c1` returned an RP-LC retention time of 650 s.

`CCn1nnc2cc(-c3noc(CNC(=O)Cc4ccccc4)n3)ccc21` displayed an RP-LC retention time of 767 s. The compound `CCOC(=O)c1[nH]c(C)c(S(=O)(=O)N2CCN(c3ccccn3)CC2)c1C` showed an RP-LC retention time of 640 s. `CC(C)NC(=O)c1ccc2c(c1)CCN2C(=O)C(C)C` displayed an RP-LC retention time of 733 s.

On to `CCN1C(=O)C(CC(=O)NC(C)c2ccccc2)Sc2ncccc21` (centres undefined), for which the RP-LC retention time is 751 s. Take `COc1ccc(NC(=O)N2CCC3(CC2)NC(=O)c2ccc(Cl)cc2N3C)c(C)c1`: the RP-LC retention time was determined as 787 s. `CCN(CC)c1nc2ccsc2c(=O)n1CCC(=O)NCc1ccc(F)cc1` yielded an RP-LC retention time of 831 s. Compound `CN1C(=O)c2cccnc2Sc2cc(NC(=O)Cc3cccc(F)c3)ccc21` came in with an RP-LC retention time of 784 s. With `Cc1onc(C(=O)N2CCc3c(c(-c4nncn4CC4CC4)nn3C)C2)c1Cn1cc(Cl)cn1`, the RP-LC retention time was 735 s. Then `Cc1ccnc(NS(=O)(=O)c2ccc(NC(=O)C3=COCCO3)cc2)n1`, with 603 s; and `Cc1cc(C)c(C(=O)N2CCC(CC(=O)NCc3ccc4c(c3)OCO4)CC2)[nH]1`, with 724 s; and `CCC(=O)NCc1nc2c(n1C)CN(S(=O)(=O)c1c(C)c(C)cc(C)c1C)CC2`, with 556 s. Then `COc1ccc(OC)c(-c2cn3ccn(-c4cc(C)cc(C)c4)c(=O)c3n2)c1`, with 975 s.

In the case of `CNC(=O)N1CCC(OC2CCN(Cc3ccccc3)CC2)CC1`, the RP-LC retention time is 555 s. For `Cc1nnc2cc(N3CCN(S(=O)(=O)c4ccc(CC(C)C)cc4)CC3)cnn12` the value was 695 s; for `CCCCC(=O)N(CCC)CCC`, 965 s. For `CC(=O)N(C1CCOCC1)C1CCN(S(=O)(=O)c2cc(F)ccc2C)CC1` the value was 792 s; for `Cc1cccc(NC(=O)CN2C(=O)CCCc3cc(S(=O)(=O)N4CCCCC4)ccc32)c1`, 958 s; for `CN(CCCNC(=O)C1c2ccccc2C(=O)N(C)C1c1cccs1)Cc1ccccc1` (centres undefined), 645 s.

On to `O=C(NCCC1=CCCCC1)C1CCN(c2ncccc2-c2nc(-c3ccc(Cl)cc3)no2)CC1`, for which the RP-LC retention time stood at 1330 s. In turn, `Cc1ccccc1NC(=O)C1CCCN(c2nc3ccccc3nc2C(F)(F)F)C1` (centres undefined) gave an RP-LC retention time of 1190 s. `COc1cccc(-c2nc(C3CCN(S(=O)(=O)c4cccc(C)c4)CC3)no2)c1`: the RP-LC retention time came out at 1150 s.

For the compound `Cc1cc(C(=O)N2CCN(c3ccccn3)CC2)nc2ccnn12`, the RP-LC retention time turned out to be 556 s. Then `O=C(Nc1ccccc1)c1cccn1Cc1noc(-c2ccccc2)n1`, with 1020 s; and `CC1=C(c2ccc(F)cc2)S(=O)(=O)N=C1N1CCCN(C(=O)C(C)(C)C)CC1`, with 814 s; and `Cc1cc(C)n(CCN2CCN(C(=O)C3CCC3)CC2)n1`, with 546 s. For `NC(=O)C(=O)c1cn(CC(=O)NC2CCCCC2)c2ccccc12` the value was 743 s; for `Cc1cc(C)n(Cc2ccc(C(=O)N3CCN(c4ccc(=O)n(-c5ccccc5)n4)CC3)o2)n1`, 706 s; for `CC(C)N1CCn2c(nc3cc(C(=O)NCc4cccc(Cl)c4)ccc32)C1=O`, 733 s. Regarding `CC(C)NC(=O)c1nc(-c2ccnc(N3CCOCC3)c2)no1`, the RP-LC retention time was found to be 671 s. In turn, `CC(C)NC(=O)CN1CCN(Cc2nc(-c3ccc(N4CCCC4)nc3)no2)CC1` displayed an RP-LC retention time of 541 s. `Cc1cc(C)cc(N2CCC(NC(=O)c3ccc(C#N)cc3)C2=O)c1` (centres undefined) showed an RP-LC retention time of 854 s. The compound `O=C(NCC(c1cccnc1)N1CCc2ccccc2C1)C(=O)NC1CCCCCC1` (centres undefined) yielded an RP-LC retention time of 681 s.

As to `O=C1NCCCn2cc(S(=O)(=O)N3CCN(Cc4ccccc4)CC3)cc21`, the RP-LC retention time came out at 758 s. `O=C(Cn1c(=O)c2cc(C3CC3)nn2c2ncccc21)NCc1ccc(F)cc1` returned an RP-LC retention time of 748 s. As for `O=C(Nc1cccc(Cl)c1F)c1cnc(-c2ccc(F)cc2)nc1-c1ccncc1`, the RP-LC retention time is 972 s. `Cc1ccc(C(=O)Nc2cnc(N3CCCCCC3)nc2)s1`: the RP-LC retention time stood at 910 s.

With `CC1(C(=O)NCc2cccc(F)c2)CCCN(S(=O)(=O)c2ccc(F)cc2)C1` (centres undefined), the RP-LC retention time was 948 s. In the case of `C=Cc1ccc(Cn2c(C)c(CNCCc3ccco3)c(C(=O)O)c2C)cc1`, the RP-LC retention time worked out at 755 s. Then `Cc1cccc(Nc2ccc(N3CCN(C(=O)Cc4c[nH]c5ccccc45)CC3)nn2)n1`, with 574 s; and `CNC(=O)N1CCCC(c2cccc(C(=O)N3CCN(c4ccccc4F)CC3)c2)C1` (centres undefined), with 834 s; and `CN(Cc1nc2ccccc2n1Cc1ccccc1F)C(=O)c1ccco1`, with 719 s. Then `Cc1cnc(-c2ccccc2)n1C1CN(Cc2ccc(F)cc2F)C1`, with 572 s; and `CN(C)c1ccc(CCCNC(=O)Cc2ccc(Cl)cc2)cc1`, with 604 s; and `Cc1noc([C@@H]2CN(C(=O)c3cc(C)n(Cc4ccco4)c3C)C[C@H]2C(N)=O)n1`, with 686 s. As to `CCc1ccc(NC(=O)Cc2nnc3cc(-c4nc(CC)no4)ccn23)cc1`, the RP-LC retention time is 826 s. Turning to `Nc1ccc(N2C(=O)c3ccccc3C2=O)c(Cl)c1`, the RP-LC retention time is 884 s. Turning to `CCc1ccccc1NC(=O)C1CCCN(S(=O)(=O)c2cc(-c3noc(C)n3)cs2)C1` (centres undefined), the RP-LC retention time turned out to be 974 s.

Compound `CCc1ccc2c(c1)c(=O)c(C(=O)c1ccccc1)cn2CC(=O)Nc1cccc(Cl)c1` came in with an RP-LC retention time of 892 s. The compound `Cc1oc(C2CCN(S(=O)(=O)c3cc(F)ccc3F)CC2)nc1C(=O)N1CCCC1` registered an RP-LC retention time of 926 s. `Cc1ccc(C)c(NC(=O)N2CCC(c3cc(N)on3)CC2)c1` yielded an RP-LC retention time of 698 s. `COc1ccc(-c2nc(N3CCN(C4CCCCC4)CC3)c3ccccc3n2)cc1` gave an RP-LC retention time of 589 s. Take `Cc1ccc(-n2nnnc2CNC(=O)COc2ccc(Cl)cc2Cl)cc1C`: the RP-LC retention time is 931 s.

In turn, `O=C(NCc1csc(C2CCCN(C(=O)C3CCCCC3)C2)n1)C1CC1` (centres undefined) returned an RP-LC retention time of 748 s. `COc1ccc(OC)c(S(=O)(=O)N2CCCC(C(=O)NC(C)(C)C)C2)c1` (centres undefined) came in with an RP-LC retention time of 768 s. `Cc1cccc(N2CC(C(=O)N3CCCCCC3)CC2=O)c1` (centres undefined) gave an RP-LC retention time of 802 s. Regarding `COC(=O)c1nnn(-c2ccc(OC)cc2)c1C(=O)OC`, the RP-LC retention time worked out at 815 s. For `COc1cc(OC)c(NC(=O)N2CCC3(C2)c2nc[nH]c2CCN3C)cc1Cl` (centres undefined) the value was 569 s; for `CC1=NS(=O)(=O)N(Cc2ccccc2)C=C1C(=O)OCc1noc(-c2cccc(Cl)c2)n1`, 1130 s. The compound `COc1cccc(-n2c(=O)c(C(=O)Nc3cccc(Cl)c3)c(O)c3cccnc32)c1` returned an RP-LC retention time of 1330 s. Take `Cc1ccc(C(=O)NC(C)C(=O)Nc2nc3ccccc3[nH]2)cc1` (centres undefined): the RP-LC retention time was found to be 648 s. Compound `Cc1sc2ccn(C)c(=O)c2c1C(=O)NCc1cccc(Br)c1` gave an RP-LC retention time of 834 s. Turning to `CC1=C(c2ccc(F)cc2)S(=O)(=O)N=C1N1CCCN(C(=O)c2ccncc2)CC1`, the RP-LC retention time was 649 s.

Regarding `CCOc1ccc2nc(C(=O)NC3CCCCC3)cn2n1`, the RP-LC retention time was 897 s. In the case of `O=C(CCC1CCCN(S(=O)(=O)c2ccccc2F)C1)NC1CCS(=O)(=O)C1` (centres undefined), the RP-LC retention time stood at 748 s. With `CS(=O)(=O)c1nc2ccc(NS(=O)(=O)c3cc(F)cc(F)c3)cc2s1`, the RP-LC retention time was determined as 858 s. Take `CCCCOc1ccc(-c2ccc(=O)n(Cc3nc(-c4ccc(F)cc4)no3)n2)cc1`: the RP-LC retention time amounted to 1290 s.

Source of the values: the METLIN SMRT retention time set (Domingo-Almenara et al. 2019).
